Biological target: T1, sACE (Homo sapiens, UniProt P12821)
T1 construct: made in house; host or cells: CHO cells; purified from cell lysate
Test: Aβ(4–10)Y hydrolysis by sACE, fluorogenic assay
Type: biochemical
From the text: Fluorogenic substrates designed around the established N‐terminal Asp7‐Ser8 cleavage site of the full‐length Aβ(1–42) were used to develop a higher throughput assay. There are two variations of the short fluorogenic peptides: Aβ(4–10)Q (Abz‐FRHDSG(Q)‐EDDnp) which has an N‐terminal Abz donor and a C‐terminal EDDnp quencher group attached to an additional Gln residue. The second peptide, Aβ(4–10)Y (Abz‐FRHDSG‐(NT)) has a different quencher molecule, NT, which substitutes for the naturally occurring Tyr residue.
An alternative fluorogenic peptide, Abz‐FRHDSG‐(NT) (BIOPEP™ South Africa) was assayed, with 100 μL enzyme and 100 μL substrate (at a final enzyme concentration within 10% hydrolysis of total substrate; see Table 3) as above, in 96‐well plates. The samples were read at the 5 min time point on a Cary Eclipse spectrofluorimeter (Varian Inc.) at λex = 320 nm and λem = 420 nm. Kinetic constants, inner filter effect and standard curves were calculated as above.
Statistical analysis of the data was determined by Student's t test. Differences with P < 0.05 were considered statistically significant. Fractional error was calculated for the k cat/K m ratio with the following equation: ΔZ=ZΔa/a^2+Δb/b^2 where Z represents the mean k cat/K m and ΔZ represents the fractional error. The Δa represents the SEM of the mean k cat (a). Similarly, Δb represents the SEM of the mean K m (b).

[1] = fluorescence λex 320 nm, λem 420 nm, Hepes pH 7.5 buffer as for Aβ(4–10)Q, 5 min time point, enzyme 0.031 pmol, mean ± SEM, n = 3

T1 sequence (P12821 30-1306): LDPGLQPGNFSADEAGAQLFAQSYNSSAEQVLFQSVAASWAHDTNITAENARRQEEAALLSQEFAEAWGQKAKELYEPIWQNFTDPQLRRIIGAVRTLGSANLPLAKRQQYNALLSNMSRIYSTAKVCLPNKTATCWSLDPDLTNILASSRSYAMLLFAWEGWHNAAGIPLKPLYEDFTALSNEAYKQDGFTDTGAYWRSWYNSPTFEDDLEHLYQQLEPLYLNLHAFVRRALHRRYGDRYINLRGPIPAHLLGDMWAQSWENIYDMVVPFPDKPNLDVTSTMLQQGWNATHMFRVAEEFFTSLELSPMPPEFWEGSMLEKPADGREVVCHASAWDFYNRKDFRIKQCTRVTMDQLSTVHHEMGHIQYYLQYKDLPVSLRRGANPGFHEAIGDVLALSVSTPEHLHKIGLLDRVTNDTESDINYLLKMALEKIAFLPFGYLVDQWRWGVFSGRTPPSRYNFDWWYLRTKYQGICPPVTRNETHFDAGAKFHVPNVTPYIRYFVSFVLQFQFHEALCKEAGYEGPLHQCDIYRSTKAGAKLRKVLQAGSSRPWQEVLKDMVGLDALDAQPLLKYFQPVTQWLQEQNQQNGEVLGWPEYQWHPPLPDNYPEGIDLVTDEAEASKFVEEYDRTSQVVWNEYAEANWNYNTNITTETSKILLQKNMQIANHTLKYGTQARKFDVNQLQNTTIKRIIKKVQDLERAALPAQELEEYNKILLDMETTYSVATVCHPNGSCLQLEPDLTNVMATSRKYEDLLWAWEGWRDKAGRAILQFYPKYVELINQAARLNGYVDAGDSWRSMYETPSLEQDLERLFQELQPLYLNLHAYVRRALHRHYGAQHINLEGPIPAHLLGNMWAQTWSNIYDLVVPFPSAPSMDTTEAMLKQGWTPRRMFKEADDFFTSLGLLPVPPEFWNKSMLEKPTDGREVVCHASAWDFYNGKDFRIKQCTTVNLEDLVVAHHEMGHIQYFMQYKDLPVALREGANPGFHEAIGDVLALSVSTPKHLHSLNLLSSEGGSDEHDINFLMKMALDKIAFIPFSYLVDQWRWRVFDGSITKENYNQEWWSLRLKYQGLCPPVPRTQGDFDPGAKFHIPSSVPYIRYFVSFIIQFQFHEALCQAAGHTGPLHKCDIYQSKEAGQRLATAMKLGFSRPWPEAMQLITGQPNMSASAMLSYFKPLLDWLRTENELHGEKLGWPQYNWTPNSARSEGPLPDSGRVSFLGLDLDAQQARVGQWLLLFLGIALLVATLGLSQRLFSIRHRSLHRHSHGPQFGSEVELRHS

**Q.** For “Abz‐FRHDSG‐(NT) [Aβ(4–10)Y, fluorogenic Aβ(4–10) peptide with NT quencher substituting for Tyr]”, which K m [1] is on record?
**A.** 12.60 ± 2.48 µM

**Q.** And the V max [1]?
**A.** 0.90 ± 0.18

**Q.** And the k cat [1]?
**A.** 28.70 ± 5.81 s⁻¹

**Q.** What about the “k cat/K m” value (fluorescence λex 320 nm, λem 420 nm, Hepes pH 7.5 buffer as for Aβ(4–10)Q, 5 min time point, enzyme 0.031 pmol, mean ± fractional error of the ratio, n = 3) of the same substance?
**A.** 22.67 ± 6.40 M^−1·s^−1 × 10^5

**Q.** What about the “catalytic efficiency of sACE, fold greater than Ndom” value (sACE versus Ndom, P < 0.05) of the same substance?
**A.** 2 fold
